This is an account of results in patent US12404262B2 (priority 2021, dated 2025).

Read-outs that look alike come from different tables or passages of the source.

The mark [1] stands for this setting: 0.1N HCl, 1.0% DMSO, 24-hour incubation at ambient temperature, maximum theoretical 100 μM, first value of the cell.
The mark [2] stands for this setting: 1×PBS buffer (pH 7.4), 1.0% DMSO, 24-hour incubation at ambient temperature, maximum theoretical 100 μM, second value of the cell.

Take `CC(C)(C#Cc1ccc(-c2ccc(Cl)c3c(N(C(=O)NCCN4CCNCC4)S(C)(=O)=O)nn(CC(F)(F)F)c23)c([C@H](Cc2cc(F)cc(F)c2)NC(=O)Cn2nc(C(F)(F)F)c3c2C(F)(F)[C@@H]2C[C@H]32)n1)S(C)(=O)=O` [Compound 73, N—((S)-1-(3-(4-chloro-3-(N-((2-(piperazin-1-yl)ethyl)carbamoyl)methylsulfonamido)-1-(2,2,2-trifluoroethyl)-1H-indazol-7-yl)-6-(3-methyl-3-(methylsulfonyl)but-1-yn-1-yl)pyridin-2-yl)-2-(3,5-difluorophenyl)ethyl)-2-((3bS,4aR)-5,5-difluoro-3-(trifluoromethyl)-3b,4,4a,5-tetrahydro-1H-cyclopropa[3,4]cyclopenta[1,2-c]pyrazol-1-yl)acetamide]: under setting [1], the “pH 2 solubility” value was determined as 72 μM. Under setting [2], the “pH 7 solubility” value came to 16 μM.

Consider `CC(C)(C#Cc1ccc(-c2ccc(Cl)c3c(N(C(=O)OC(CCC(=O)O)CCC(=O)O)S(C)(=O)=O)nn(CC(F)(F)F)c23)c([C@H](Cc2cc(F)cc(F)c2)NC(=O)Cn2nc(C(F)(F)F)c3c2C(F)(F)[C@@H]2C[C@H]32)n1)S(C)(=O)=O` [Compound 124, 4-(((4-chloro-7-(2-((S)-1-(2-((3bS,4aR)-5,5-difluoro-3-(trifluoromethyl)-3b,4,4a,5-tetrahydro-1H-cyclopropa[3,4]cyclopenta[1,2-c]pyrazol-1-yl)acetamido)-2-(3,5-difluorophenyl)ethyl)-6-(3-methyl-3-(methylsulfonyl)but-1-yn-1-yl)pyridin-3-yl)-1-(2,2,2-trifluoroethyl)-1H-indazol-3-yl)(methylsulfonyl)carbamoyl)oxy)heptanedioic acid], for which the “pH 7 solubility” value is 2/83 μM. Moreover, where the note is “pH 2”, the “pH 2 solubility” value is recorded as 2/83 μM.

`CN(C(=O)N(c1nn(CC(F)(F)F)c2c(-c3ccc(C#CC(C)(C)S(C)(=O)=O)nc3[C@H](Cc3cc(F)cc(F)c3)NC(=O)Cn3nc(C(F)(F)F)c4c3C(F)(F)[C@@H]3C[C@H]43)ccc(Cl)c12)S(C)(=O)=O)C(C)(C)C(=O)OCOP(=O)(O)O` [Compound 85, (phosphonooxy)methyl 2-(3-(4-chloro-7-(2-((S)-1-(2-((3bS,4aR)-5,5-difluoro-3-(trifluoromethyl)-3b,4,4a,5-tetrahydro-1H-cyclopropa[3,4]cyclopenta[1,2-c]pyrazol-1-yl)acetamido)-2-(3,5-difluorophenyl)ethyl)-6-(3-methyl-3-(methylsulfonyl)but-1-yn-1-yl)pyridin-3-yl)-1-(2,2,2-trifluoroethyl)-1H-indazol-3-yl)-1-methyl-3-(methylsulfonyl)ureido)-2-methylpropanoate]: the “pH 2 solubility” value under setting [1] worked out at 5 μM. Further, the “pH 7 solubility” value under setting [2] came out at 65 μM.

On to `CC(C)(C#Cc1ccc(-c2ccc(Cl)c3c(N(C(=O)OCCOCCOCCOP(=O)(O)O)S(C)(=O)=O)nn(CC(F)(F)F)c23)c([C@H](Cc2cc(F)cc(F)c2)NC(=O)Cn2nc(C(F)(F)F)c3c2C(F)(F)[C@@H]2C[C@H]32)n1)S(C)(=O)=O` [Compound 108, 2-(2-(2-(phosphonooxy)ethoxy)ethoxy)ethyl (4-chloro-7-(2-((S)-1-(2-((3bS,4aR)-5,5-difluoro-3-(trifluoromethyl)-3b,4,4a,5-tetrahydro-1H-cyclopropa[3,4]cyclopenta[1,2-c]pyrazol-1-yl)acetamido)-2-(3,5-difluorophenyl)ethyl)-6-(3-methyl-3-(methylsulfonyl)but-1-yn-1-yl)pyridin-3-yl)-1-(2,2,2-trifluoroethyl)-1H-indazol-3-yl)(methylsulfonyl)carbamate], for which the “pH 2 solubility” value under setting [1] stood at 1 μM. Besides, the “pH 7 solubility” value under setting [2] worked out at 100 μM.

Regarding `CC(C)(C#Cc1ccc(-c2ccc(Cl)c3c(N(C(=O)O[C@@H](CC(=O)O)C(=O)O)S(C)(=O)=O)nn(CC(F)(F)F)c23)c([C@H](Cc2cc(F)cc(F)c2)NC(=O)Cn2nc(C(F)(F)F)c3c2C(F)(F)[C@@H]2C[C@H]32)n1)S(C)(=O)=O` [Compound 119, (S)-2-(((4-chloro-7-(2-((S)-1-(2-((3bS,4aR)-5,5-difluoro-3-(trifluoromethyl)-3b,4,4a,5-tetrahydro-1H-cyclopropa[3,4]cyclopenta[1,2-c]pyrazol-1-yl)acetamido)-2-(3,5-difluorophenyl)ethyl)-6-(3-methyl-3-(methylsulfonyl)but-1-yn-1-yl)pyridin-3-yl)-1-(2,2,2-trifluoroethyl)-1H-indazol-3-yl)(methylsulfonyl)carbamoyl)oxy)succinic acid], under setting [1], the “pH 2 solubility” value is given as 1/1 μM. Also, the “pH 7 solubility” value under setting [2] was 1/1 μM.

Take `CC(C)(COP(=O)(O)O)C(=O)OCN(c1nn(CC(F)(F)F)c2c(-c3ccc(C#CC(C)(C)S(C)(=O)=O)nc3[C@H](Cc3cc(F)cc(F)c3)NC(=O)Cn3nc(C(F)(F)F)c4c3C(F)(F)[C@@H]3C[C@H]43)ccc(Cl)c12)S(C)(=O)=O` [Compound 25, (N-(4-chloro-7-(2-((S)-1-(2-((3bS,4aR)-5,5-difluoro-3-(trifluoromethyl)-3b,4,4a,5-tetrahydro-1H-cyclopropa[3,4]cyclopenta[1,2-c]pyrazol-1-yl)acetamido)-2-(3,5-difluorophenyl)ethyl)-6-(3-methyl-3-(methylsulfonyl)but-1-yn-1-yl)pyridin-3-yl)-1-(2,2,2-trifluoroethyl)-1H-indazol-3-yl)methylsulfonamido)methyl 2,2-dimethyl-3-(phosphonooxy)propanoate]: the “pH 2 solubility” value under setting [1] came to 1 μM. In addition, the “pH 7 solubility” value under setting [2] stood at 73 μM.

`CC(C)(C#Cc1ccc(-c2ccc(Cl)c3c(N(C(=O)OCCOCCOCCO)S(C)(=O)=O)nn(CC(F)(F)F)c23)c([C@H](Cc2cc(F)cc(F)c2)NC(=O)Cn2nc(C(F)(F)F)c3c2C(F)(F)[C@@H]2C[C@H]32)n1)S(C)(=O)=O` [Compound 107, 2-(2-(2-hydroxyethoxy)ethoxy)ethyl (4-chloro-7-(2-((S)-1-(2-((3bS,4aR)-5,5-difluoro-3-(trifluoromethyl)-3b,4,4a,5-tetrahydro-1H-cyclopropa[3,4]cyclopenta[1,2-c]pyrazol-1-yl)acetamido)-2-(3,5-difluorophenyl)ethyl)-6-(3-methyl-3-(methylsulfonyl)but-1-yn-1-yl)pyridin-3-yl)-1-(2,2,2-trifluoroethyl)-1H-indazol-3-yl)(methylsulfonyl)carbamate]: the “pH 2 solubility” value under setting [1] came out at 4 μM. Further, the “pH 7 solubility” value under setting [2] came out at 1 μM.

As for `CC(C)(C#Cc1ccc(-c2ccc(Cl)c3c(N(C(=O)OCCCCOP(=O)(O)O)S(C)(=O)=O)nn(CC(F)(F)F)c23)c([C@H](Cc2cc(F)cc(F)c2)NC(=O)Cn2nc(C(F)(F)F)c3c2C(F)(F)[C@@H]2C[C@H]32)n1)S(C)(=O)=O` [Compound 102, 4-(phosphonooxy)butyl (4-chloro-7-(2-((S)-1-(2-((3bS,4aR)-5,5-difluoro-3-(trifluoromethyl)-3b,4,4a,5-tetrahydro-1H-cyclopropa[3,4]cyclopenta[1,2-c]pyrazol-1-yl)acetamido)-2-(3,5-difluorophenyl)ethyl)-6-(3-methyl-3-(methylsulfonyl)but-1-yn-1-yl)pyridin-3-yl)-1-(2,2,2-trifluoroethyl)-1H-indazol-3-yl)(methylsulfonyl)carbamate], the “pH 2 solubility” value under setting [1] is on record as 1 μM. In addition, the “pH 7 solubility” value under setting [2] was 100 μM.
